# Assay results reported in US10689399B2, “Substituted 3,4,5,6,8,10,14,14a-octahydro-2h-2,6-methanopyrido[1′,2′:4,5]pyrazino[2,1-b][1,3]oxazocines and methods for treating viral infections” (Gilead Sciences, Inc., priority 2012, dated 2020).
# Test system: HIV-IIIb
# Experiment: Antiviral assay in MT4 cells
# Format: cell-based
# Conditions: Human immunodeficiency virus 1, IIIB, MT4, 120 h, MT4 cells infected with HIV-IIIb, 5 days, CellTiter-Glo; read-out: EC50 nM in MT-4
# Method: For the antiviral assay utilizing MT4 cells, 0.4 μL of 189X test concentration of 3-fold serially diluted compound in DMSO was added to 40 μL of cell growth medium (RPMI 1640, 10% FBS, 1% penicilline/Streptomycine, 1% L-Glutamine, 1% HEPES) in each well of 384-well assay plates (10 concentrations) in quidruplicate.
# 1 mL aliquots of 2×10^6 MT4 cells are pre-infected for 1 and 3 hours respectively at 37° C. with 25 μL (MT4) or of either cell growth medium (mock-infected) or a fresh 1:250 dilution of an HIV-IIIb concentrated ABI stock (0.004 m.o.i. for MT4 cells). Infected and uninfected cells are diluted in cell growth medium and 35 μL of 2000 (for MT4) cells is added to each well of the assay plates.
# Assay plates were then incubated in a 37° C. incubator. After 5 days of incubation, 25 μL of 2× concentrated CellTiter-Glo™ Reagent (catalog # G7573, Promega Biosciences, Inc., Madison, Wis.) was added to each well of the assay plate. Cell lysis was carried out by incubating at room temperature for 2-3 minutes, and then chemiluminescence was read using the Envision reader (PerkinElmer).
row,Compound,EC50 [nM]
1,"C[C@H](NC(=O)c1cn2c(c(O)c1=O)C(=O)N1[C@@H]3CC[C@@H](C3)O[C@H]1C2)c1ccc(F)cc1 [Compound 21, (2S,5R,13aS)—N—((S)-1-(4-fluorophenyl)ethyl)-8-hydroxy-7,9-dioxo-2,3,4,5,7,9,13,13a-octahydro-2,5-methanopyrido[1′,2′:4,5]pyrazino[2,1-b][1,3]oxazepine-10-carboxamide]",38.3
2,"C[C@@H](NC(=O)c1cn2c(c(O)c1=O)C(=O)N1[C@H]3CC[C@H](C3)O[C@@H]1C2)c1ccc(F)cc1 [Compound 10, (2R,5S,13aR)—N—((R)-1-(4-fluorophenyl)ethyl)-8-hydroxy-7,9-dioxo-2,3,4,5,7,9,13,13a-octahydro-2,5-methanopyrido[1%2′: 4,5]pyrazino[2,1-b][1,3]oxazepine-10-carboxamide]",6.1
3,"C[C@@H](NC(=O)c1cn2c(c(O)c1=O)C(=O)N1[C@@H]3CC[C@@H](C3)O[C@H]1C2)c1ccc(F)cc1F [Compound 11, (2S,5R,13aS)—N—((R)-1-(2,4-difluorophenyl)ethyl)-8-hydroxy-7,9-dioxo-2,3,4,5,7,9,13,13a-octahydro-2,5-methanopyrido[1′,2′: 4,5]pyrazino[2,1-b][1,3]oxazepine-10-carboxamide]",4.9
4,"O=C(NCc1ccc(F)c(Cl)c1F)c1cn2c(c(O)c1=O)C(=O)N1[C@H]3CC[C@H](C3)[C@H]1C2 [Compound 61, (1R,4S,12aS)—N-(3-chloro-2,4-difluorobenzyl)-7-hydroxy-6,8-dioxo-1,2,3,4,6,8,12,12a-octahydro-1,4-methanodipyrido[1,2-a:1′,2′-d]pyrazine-9-carboxamide]",1.8
5,"C[C@H]1CO[C@@H]2Cn3cc(C(=O)NC4(c5ccc(F)cc5F)CC4)c(=O)c(O)c3C(=O)N12 [Compound 37, (3S,11aR)—N-(1-(2,4-difluorophenyl)cyclopropyl)-6-hydroxy-3-methyl-5,7-dioxo-2,3,5,7,11,11a-hexahydrooxazolo[3,2-a]pyrido[1,2-d]pyrazine-8-carboxamide]",10.2
6,"C[C@@H](NC(=O)c1cn2c(c(O)c1=O)C(=O)N1[C@@H]3CC[C@@H](C3)O[C@H]1C2)c1ccc(F)cc1 [Compound 9, (2S,5R,13aS)—N—((R)-1-(4-fluorophenyl)ethyl)-8-hydroxy-7,9-dioxo-2,3,4,5,7,9,13,13a-octahydro-2,5-methanopyrido[1′,2′:4,5]pyrazino[2,1-b][1,3]oxazepine-10-carboxamide]",5.1
7,"O=C(NCc1cccc(F)c1F)c1cn2c(c(O)c1=O)C(=O)N1[C@@H]3CC[C@@H](C3)O[C@H]1C2 [Compound 16, (2S,5R,13aS)—N-(2,3-difluorobenzyl)-8-hydroxy-7,9-dioxo-2,3,4,5,7,9,13,13a-octahydro-2,5-methanopyrido[1′,2′:4,5]pyrazino[2,1-b][1,3]oxazepine-10-carboxamide]",1.5
8,"O=C(NCc1cccc(Cl)c1F)c1cn2c(c(O)c1=O)C(=O)N1[C@H]3CC[C@H](C3)[C@@H]1C2 [Compound 90, (1R,4S,12aR)—N-(3-chloro-2-fluorobenzyl)-7-hydroxy-6,8-dioxo-1,2,3,4,6,8,12,12a-octahydro-1,4-methanodipyrido[1,2-a:1′,2′-d]pyrazine-9-carboxamide]",5.7
9,"C[C@H](NC(=O)c1cn2c(c(O)c1=O)C(=O)N1[C@H]3CC[C@H](C3)O[C@@H]1C2)c1ccc(F)cc1 [Compound 22, (2R,5S,13aR)—N—((S)-1-(4-fluorophenyl)ethyl)-8-hydroxy-7,9-dioxo-2,3,4,5,7,9,13,13a-octahydro-2,5-methanopyrido[1′,2′:4,5]pyrazino[2,1-b][1,3]oxazepine-10-carboxamide]",64.3
10,"O=C(NCc1cc(F)cc(F)c1)c1cn2c(c(O)c1=O)C(=O)N1[C@@H]3CC[C@@H](C3)O[C@H]1C2 [Compound 24, (2 S,5R,13aS)—N-(3,5-difluorobenzyl)-8-hydroxy-7,9-dioxo-2,3,4,5,7,9,13,13a-octahydro-2,5-methanopyrido[1′,2′: 4,5]pyrazino[2,1-b][1,3]oxazepine-10-carboxamide]",6.1
11,"O=C(NCc1ccc(F)c(Cl)c1F)c1cn2c(c(O)c1=O)C(=O)N1[C@H]3CC[C@H](C3)[C@@H]1C2 [Compound 69, (1R,4S,12aR)—N-(3-chloro-2,4-difluorobenzyl)-7-hydroxy-6,8-dioxo-1,2,3,4,6,8,12,12a-octahydro-1,4-methanodipyrido[1,2-a:1′,2′-d]pyrazine-9-carboxamide]",1.9
12,"O=C(NCc1ccc(F)cc1C(F)(F)F)c1cn2c(c(O)c1=O)C(=O)N1[C@H]3CC[C@H](C3)O[C@@H]1C2 [Compound 62, (2R,5S,13aR)—N-(4-fluoro-2-(trifluoromethyl)benzyl)-8-hydroxy-7,9-dioxo-2,3,4,5,7,9,13,13a-octahydro-2,5-methanopyrido[1′,2′:4,5]pyrazino[2,1-b][1,3]oxazepine-10-carboxamide]",9.2
13,"O=C(NCc1ccc(F)c(Cl)c1)c1cn2c(c(O)c1=O)C(=O)N1[C@H]3CC[C@H](C3)[C@@H]1C2 [Compound 75, (1R,4S,12aR)—N-(3-chloro-4-fluorobenzyl)-7-hydroxy-6,8-dioxo-1,2,3,4,6,8,12,12a-octahydro-1,4-methanodipyrido[1,2-a:1′,2′-d]pyrazine-9-carboxamide]",2.8
14,"O=C(NCc1c(F)cc(F)cc1F)c1cn2c(c(O)c1=O)C(=O)N1[C@@H]3C[C@@H]([C@H](F)C3)[C@@H]1C2 [Compound 59, (1R,2R,4R,12aR)-2-fluoro-7-hydroxy-6,8-dioxo-N-(2,4,6-trifluorobenzyl)-1,2,3,4,6,8,12,12a-octahydro-1,4-methanodipyrido[1,2-a:1′,2′-d]pyrazine-9-carboxamide]",3.1
15,"O=C(NCc1ccc(F)cc1F)c1cn2c(c(O)c1=O)C(=O)N1C(C2)O[C@H]2CCC[C@@H]1C2 (stereo partly drawn) [Compound 7, (2S,6R)—N-(2,4-difluorobenzyl)-9-hydroxy-8,10-dioxo-3,4,5,6,8,10,14,14a-octahydro-2H-2,6-methanopyrido[1′,2′:4,5]pyrazino[2,1-b][1,3]oxazocine-11-carboxamide]",3.5
16,"O=C(NCc1ccc(F)cc1F)c1cn2c(c(O)c1=O)C(=O)N1C(C2)[N@@]2CCC[C@@H]1C2 (stereo partly drawn) [Compound 20, (1S,5R)—N-(2,4-difluorobenzyl)-8-hydroxy-7,9-dioxo-2,3,4,5,7,9,13,13a-octahydro-1,5-methanopyrido[1′,2′:4,5]pyrazino[1,2-a][1,3]diazepine-10-carboxamide]",3.3
17,"O=C(NCc1ccccc1F)c1cn2c(c(O)c1=O)C(=O)N1[C@@H]3CC[C@@H](C3)O[C@H]1C2 [Compound 23, (2 S,5R,13aS)—N-(2-fluorobenzyl)-8-hydroxy-7,9-dioxo-2,3,4,5,7,9,13,13a-octahydro-2,5-methanopyrido[1′,2′:4,5]pyrazino[2,1-b][1,3]oxazepine-10-carboxamide]",2.3
18,"O=C(NCc1c(F)cccc1F)c1cn2c(c(O)c1=O)C(=O)N1[C@@H]3CC[C@@H](C3)O[C@H]1C2 [Compound 46, (13aS)—N-(2,6-difluorobenzyl)-8-hydroxy-7,9-dioxo-2,3,4,5,7,9,13,13a-octahydro-2,5-methanopyrido[1′,2′:4,5]pyrazino[2,1-b][1,3]oxazepine-10-carboxamide]",2.6
19,"O=C(NCc1ccc(F)cc1F)c1cn2c(c(O)c1=O)C(=O)N1[C@@H]3COC[C@@H](C3)O[C@H]1C2 (racemic) [50/51, N-(2,4-difluorobenzyl)-9-hydroxy-8,10-dioxo-2,3,5,6,8,10,14,14a-octahydro-2,6-methanopyrido[1′,2′:4,5]pyrazino[2,1-b][1,6,3]dioxazocine-11-carboxamide]",1.9
20,"O=C(NCc1c(F)cc(F)cc1F)c1cn2c(c(O)c1=O)C(=O)N1[C@H]3CC[C@H](CC3)[C@@H]1C2 [Compound 102, (1S,4S,12aR)-7-hydroxy-6,8-dioxo-N-(2,4,6-trifluorobenzyl)-1,2,3,4,6,8,12,12a-octahydro-1,4-ethanodipyrido[1,2-a:1′,2′-d]pyrazine-9-carboxamide]",2.3
21,"O=C(NCc1cccc(C(F)(F)F)c1F)c1cn2c(c(O)c1=O)C(=O)N1[C@H]3CC[C@H](C3)[C@@H]1C2 [Compound 74, (1R,4S,12aR)—N-(2-fluoro-3-(trifluoromethyl)benzyl)-7-hydroxy-6,8-dioxo-1,2,3,4,6,8,12,12a-octahydro-1,4-methanodipyrido[1,2-a:1′,2′-d]pyrazine-9-carboxamide]",29.3
22,"O=C(NC1(c2ccc(F)cc2F)CCC1)c1cn2c(c(O)c1=O)C(=O)N1C(C2)O[C@H]2CC[C@@H]1C2 (stereo partly drawn) [Compound 32, (2S,5R)—N-(1-(2,4-difluorophenyl)cyclobutyl)-8-hydroxy-7,9-dioxo-2,3,4,5,7,9,13,13a-octahydro-2,5-methanopyrido[1′,2′: 4,5]pyrazino[2,1-b][1,3]oxazepine-10-carboxamide]",14
23,"O=C(NC1(c2ccc(F)cc2F)CCOCC1)c1cn2c(c(O)c1=O)C(=O)N1C(C2)O[C@H]2CC[C@@H]1C2 (stereo partly drawn) [Compound 35, (2S,5R)—N-(4-(2,4-difluorophenyl)tetrahydro-2H-pyran-4-yl)-8-hydroxy-7,9-dioxo-2,3,4,5,7,9,13,13a-octahydro-2,5-methanopyrido[1′,2′:4,5]pyrazino[2,1-b][1,3]oxazepine-10-carboxamide]",157
